Patent US20060205740A1, “Chemical compounds” (priority 2003, published 2006)

Experiments:
EGFR = biological target: T1, EGFR (Homo sapiens, UniProt P00533); experiment: EGFR substrate phosphorylation enzyme assay (HTRF); format: biochemical; settings: isolated enzyme, 20 μM ATP
T1 construct: made in house; host or cells: baculovirus expression system
Experimental: Compounds of the present invention were tested for EGFR, ErbB-2, and ErbB4 protein tyrosine kinase Inhibitory activity in substrate phosphorylation assays using enzymes purified from a baculovirus expression system.
(§1) The method measures the ability of the isolated enzyme to catalyse the transfer of the γ-phosphate from ATP onto the tyrosine residue of a biotinylated synthetic peptide (biotin-Ahx-[…]-amide). The extent of tyrosine phosphorylation was measured using an anti-phosphotyrosine antibody, and quantified by homogenous time-resolved fluorescence (HTRF).
(§2) The enzymes were first diluted from their concentrated stock solutions into buffer containing 100 mM MOPS (pH7.5); 0.01% Tween-20; 0.1 mg/mL bovine serum albumin (BSA); and 80 nM EGFR, 100 nM ErbB2, or 100 nM ErbB4. The enzymes were incubated in this buffer for 30 minutes at room temperature before addition to the assay plates. Reactions were performed in black 384-well polystyrene flat-bottom plates in a final volume of 20 μL. Reaction mixtures contained 100 mM MOPS (pH 7.5), 2 mM MnCl2, 20 μM ATP, 0.01% Tween-20, 0.1 mg/mL (BSA), 0.8 μM peptide substrate, and 1 mM dithiothreitol. Reactions were initiated by adding enzyme. 0.4 nM EGRF, 5 nM ErbB2, and 0.5 nM ErbB4 were the final enzyme concentrations.
Reactions were allowed to proceed for 90 minutes and were then terminated by the addition of 20 μL 100 mM EDTA to each well. 40 μL/well of HTRF mix were then added to the assay plates for the detection of phosphorylated substrate.
Compounds under analysis were dissolved in Me2SO to 1.0 mM and serially diluted 1 to 3 with Me2SO through twelve dilutions. 1 μL of each concentration was transferred to the corresponding well of an assay plate.
Data were fitted with a curve described by: y=((Vmax*x)/(K+x))+Y2 where Vmax is the upper asymptote, Y2 is the Y intercept, and K is the IC50.

ErbB2 = biological target: T2, ErbB2 (Homo sapiens, UniProt P04626); experiment: ErbB2 substrate phosphorylation enzyme assay (HTRF); format: biochemical; settings: isolated enzyme, 20 μM ATP
T2 construct: made in house; host or cells: baculovirus expression system
Experimental: Compounds of the present invention were tested for EGFR, ErbB-2, and ErbB4 protein tyrosine kinase Inhibitory activity in substrate phosphorylation assays using enzymes purified from a baculovirus expression system. Reagent production was conducted essentially as described (Brignola, P. S., et al, (2002) J. Biol. Chem. v. 277 2, 1576-1585).
as §1, §2
Reactions were allowed to proceed for 90 minutes and were then terminated by the addition of 20 μL 100 mM EDTA to each well. 40 μL/well of HTRF mix were then added to the assay plates for the detection of phosphorylated substrate. Final assay concentrations were: 100 mM HEPES (pH7.5), 0.1 mg/mL BSA, 15 nM streptavidin-labeled allophycocyanin (PerkinElmer), and 1 nM europium-labeled anti-phosphotyrosine antibody (PerkinElmer). Assay plates were left unsealed and were counted in a Wallac Multilabel Counter 1420 (PerkinElmer).
Compounds under analysis were dissolved in Me2SO to 1.0 mM and serially diluted 1 to 3 with Me2SO through twelve dilutions. 1 μL of each concentration was transferred to the corresponding well of an assay plate. This creates a final compound concentration range from 0.00027 to 47.6 μM.
The data for dose responses were plotted as % Inhibition calculated with the data reduction formula 100*(1−(U1−C2)/(C1−C2)) versus concentration of compound where U is the unknown value, C1 is the average control value obtained for 4.76% DMSO, and C2 is the average control value obtained for 0.035 M EDTA. Data were fitted with a curve described by: y=((Vmax*x)/(K+x))+Y2 where Vmax is the upper asymptote, Y2 is the Y intercept, and K is the IC50. The results for reach compound were recorded as pIC50s, calculated as follows: pIC50=−Log10(K)

T1 sequence (P00533 669-1210 limits assumed): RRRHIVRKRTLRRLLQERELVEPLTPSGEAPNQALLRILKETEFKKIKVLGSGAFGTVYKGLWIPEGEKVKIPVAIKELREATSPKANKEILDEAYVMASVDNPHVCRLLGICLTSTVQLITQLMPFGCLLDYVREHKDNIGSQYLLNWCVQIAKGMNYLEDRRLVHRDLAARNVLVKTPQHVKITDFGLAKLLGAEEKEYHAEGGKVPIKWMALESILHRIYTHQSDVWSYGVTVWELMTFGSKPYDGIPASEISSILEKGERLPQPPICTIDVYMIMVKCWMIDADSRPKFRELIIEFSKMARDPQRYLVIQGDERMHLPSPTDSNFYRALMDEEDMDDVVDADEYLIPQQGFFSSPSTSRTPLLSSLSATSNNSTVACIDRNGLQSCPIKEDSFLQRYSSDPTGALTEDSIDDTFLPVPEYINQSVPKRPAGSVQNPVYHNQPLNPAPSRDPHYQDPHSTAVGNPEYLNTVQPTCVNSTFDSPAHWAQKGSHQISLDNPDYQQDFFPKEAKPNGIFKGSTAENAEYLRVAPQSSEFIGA
T2 sequence (P04626 676-1255 limits assumed): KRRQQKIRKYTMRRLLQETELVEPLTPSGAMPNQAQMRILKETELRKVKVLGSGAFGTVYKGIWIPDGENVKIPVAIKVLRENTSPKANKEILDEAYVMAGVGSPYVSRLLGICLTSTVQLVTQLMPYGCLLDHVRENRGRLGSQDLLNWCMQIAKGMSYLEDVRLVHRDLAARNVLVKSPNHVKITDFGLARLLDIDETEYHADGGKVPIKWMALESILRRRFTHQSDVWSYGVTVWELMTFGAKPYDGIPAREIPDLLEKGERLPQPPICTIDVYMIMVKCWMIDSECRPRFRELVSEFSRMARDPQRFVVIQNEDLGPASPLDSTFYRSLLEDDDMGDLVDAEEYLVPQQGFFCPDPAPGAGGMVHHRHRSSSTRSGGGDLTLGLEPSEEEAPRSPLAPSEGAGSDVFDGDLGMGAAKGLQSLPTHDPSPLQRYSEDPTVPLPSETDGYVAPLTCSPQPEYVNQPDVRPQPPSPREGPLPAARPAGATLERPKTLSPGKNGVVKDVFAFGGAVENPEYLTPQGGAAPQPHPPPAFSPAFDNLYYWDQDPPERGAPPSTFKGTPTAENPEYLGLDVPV

Row | IC50 (EGFR) [µM] | IC50 (ErbB2) [µM] | Structure (SMILES)
1 |  | < 0.1 | Nc1nccc(C#Cc2cncnc2Nc2ccc(OCc3cccc(F)c3)c(Cl)c2)n1 [Example 99, 4-{[4-({3-Chloro-4-[(3-fluorobenzyl)oxy]phenyl}amino)pyrimidin-5-yl]ethynyl}pyrimidin-2-amine]
2 | > 1 | > 1 | CS(=O)(=O)CCNc1cccc(C#Cc2cncnc2Nc2ccc(OCc3cccc(F)c3)c(Cl)c2)n1 [Example 72, N-{3-Chloro-4-[(3-fluorobenzyl)oxy]phenyl}-5-[(6-{[2-(methylsulfonyl)ethyl]amino}-2-pyridinyl)ethynyl]-4-pyrimidinamine]
3 | 0.1 to 1 | 0.1 to 1 | Fc1cccc(COc2ccc(Nc3ncncc3C#Cc3cccc(CNCCN4CCOCC4)n3)cc2Cl)c1 [Example 76, N-{3-Chloro-4-[(3-fluorobenzyl)oxy]phenyl}-5-{[6-({[2-(4-morpholinyl)ethyl]amino}methyl)-2-pyridinyl]ethynyl}-4-pyrimidinamine]
4 | < 0.1 | < 0.1 | Nc1cccc(C#Cc2cncnc2Nc2ccc(OCc3cccc(F)c3)c(Cl)c2)n1 [Example 67, 5-[(6-Amino-2-pyridinyl)ethynyl]-N-(3-chloro-4-{[(3-fluorophenyl)methyl]oxy}phenyl)4-pyrimidinamine]
5 | < 0.1 | < 0.1 | O=C(NCCN1CCOCC1)NCc1cccc(C#Cc2cncnc2Nc2ccc(OCc3cccc(F)c3)c(Cl)c2)n1 [Example 89, N-({6-[(4-{3-Chloro-4-[(3-fluorobenzyl)oxy]anilino}-5-pyrimidinyl)ethynyl]-2-pyridinyl}methyl)-N′-[2-(4-morpholinyl)ethyl]urea]
6 | < 0.1 | < 0.1 | Fc1cccc(COc2ccc(Nc3ncncc3C#Cc3cccc(CN4CCCCC4)n3)cc2Cl)c1 [Example 92, N-{3-Chloro-4-[(3-fluorobenzyl)oxy]phenyl}-5-([6-(1-piperidinylmethyl)-2-pyridinyl]ethynyl}-4-pyrimidinamine]
7 | > 1 | > 1 | COCc1cccc(C#Cc2cncnc2Nc2ccc(OCc3cccc(F)c3)c(Cl)c2)n1 [Example 80, N-{3-Chloro-4-[(3-fluorobenzyl)oxy]phenyl}-5-{[6-(methoxymethyl)-2-pyridinyl]ethynyl}-4-pyrimidinamine]

Second part, the compound before the results:

Row | Structure (SMILES) | IC50 (EGFR) [µM] | IC50 (ErbB2) [µM]
8 | N=C(N)Nc1cccc(C#Cc2cncnc2Nc2ccc(OCc3cccc(F)c3)c(Cl)c2)c1 [Example 49, N-(3-{[4-({3-Chloro-4-[(3-fluorobenzyl)oxy]phenyl}amino)pyrimidin-5-yl]ethynyl}phenyl)guanidine] | 0.1 to 1 | < 0.1
9 | CS(=O)(=O)CCNC(=O)NCc1cccc(C#Cc2cncnc2Nc2ccc(OCc3cccc(F)c3)c(Cl)c2)n1 [Example 88, N-({6-[(4-{3-Chloro-4-[(3-fluorobenzyl)oxy]anilino}-5-pyrimidinyl)ethynyl]-2-pyridinyl}methyl)-N′-[2-(methylsulfonyl)ethyl]urea] | < 0.1 | < 0.1
10 | O=C(Nc1cccc(C#Cc2cncnc2Nc2ccc(OCc3cccc(F)c3)c(Cl)c2)n1)C(F)(F)F [Example 100, N-(6-{[4-({3-Chloro-4-[(3-fluorobenzyl)oxy]phenyl}amino)pyrimidin-5-yl]ethynyl}pyridin-2-yl)-2,2,2-trifluoroacetamide] | < 0.1 | < 0.1
11 | C(=C\c1cncnc1Nc1ccc2c(cnn2Cc2ccccc2)c1)/c1cn[nH]c1 [Example 9, 1-Benzyl-N-{5-[(E)-2-(1H-pyrazol-4-yl)ethenyl]pyrimidin-4-yl}-1H-indazol-5-amine] | 0.1 to 1 | 0.1 to 1
12 | COC(=O)CCC(=O)Nc1cccc(C#Cc2cncnc2Nc2ccc(OCc3cccc(F)c3)c(Cl)c2)n1 [Example 71, Methyl 4-({6-[(4-{3-chloro-4-[(3-fluorobenzyl)oxy]anilino}-5-pyrimidinyl)ethynyl]-2-pyridinyl}amino)-4-oxobutanoate] | 0.1 to 1 | 0.1 to 1
13 | Fc1cccc(COc2ccc(Nc3ncncc3/C=C/c3ccsc3)cc2Cl)c1 [Example 17, N-{3-Chloro-4-[(3-fluorobenzyl)oxy]phenyl}-5-[(E)-2-thien-3-yletheny]pyrimidin-4-amine] | < 0.1 | < 0.1
14 | CC(=O)Nc1cccc(/C=C/c2cncnc2Nc2ccc(OCc3cccc(F)c3)c(Cl)c2)c1 [Example 20, N-(3-{(E)-2-[4-({3-Chloro-4-[(3-fluorobenzyl)oxy]phenyl}amino)pyrimidin-5-yl]ethenyl}phenyl)acetamide] | < 0.1 | < 0.1
15 | C(=C\c1cncnc1Nc1ccc2sc(Cc3ccccc3)nc2c1)/c1ccsc1 [Example 5, 2-Benzyl-N-{5-[(E)-2-thien-3-ylethenyl]pyrimidin-4-yl}-1,3-benzothiazol-5-amine] | > 1 | > 1
16 | COc1ccc(/C=C/c2cncnc2Nc2ccc(OCc3cccc(F)c3)c(Cl)c2)cc1OC [Example 21, N-{3-Chloro-4-[(3-fluorobenzyl)oxy]phenyl}-5-[(E)-2-(3,4-dimethoxyphenyl)ethenyl]pyrimidin-4-amine] | < 0.1 | < 0.1
17 | Fc1cccc(COc2ccc(Nc3ncncc3/C=C/c3ccccc3)cc2Cl)c1 [Example 22, N-{3-Chloro-4-[(3-fluorobenzyl)oxy]phenyl}-5-[(E)-2-phenylethenyl]pyrimidin-4-amine] | < 0.1 | < 0.1
18 | Fc1cccc(COc2ccc(Nc3ncncc3/C=C/c3ccncc3)cc2Cl)c1 [Example 14, N-{3-Chloro-4-[(3-fluorobenzyl)oxy]phenyl}-5-[(E)-2-pyridin-4-ylethenyl]pyrimidin-4-amine] | < 0.1 | < 0.1
19 | CN(C)CCCC(=O)Nc1cccc(C#Cc2cncnc2Nc2ccc(OCc3cccc(F)c3)c(Cl)c2)n1 [Example 70, N-{6-[(4-{3-Chloro-4-[(3-fluorobenzyl)oxy]anilino}-5-pyrimidinyl)ethynyl]-2-pyridinyl}-4-(dimethylamino)butanamide] | < 0.1 | < 0.1
20 | Fc1cccc(COc2ccc(Nc3ncncc3C#Cc3cccc(CNCCCn4ccnc4)n3)cc2Cl)c1 [Example 78, N-{3-Chloro-4-[(3-fluorobenzyl)oxy]phenyl}-5-{[6-({[3-(1H-imidazol-1-yl)propyl]amino}methyl)-2-pyridinyl]ethynyl}-4-pyrimidinamine] | < 0.1 | < 0.1
